Laboratory results reported in US4250259A, “Microbiological production of ketones from C3 -C6 secondary alcohols” (priority 1979, dated 1981).
Where two headings read alike, the source gives them in different places.

Experiments:
[1] = test system: Methylobacter capsulatus Y (NRRL B-11,201); test: n-alkanes to methyl ketones by resting cell suspensions (Table I); assay type: cell-based; details: cells grown on methane; 30° C.
Description: (§1) The pH of the nutrient medium was adjusted to 7.0 by the addition of acid or base and 50 ml. samples of the nutrient medium were charged into a plurality of 300 ml. shaker flasks. […] The isolates had been maintained on methanol (0.4% V/V) agar plates or on agar plates under an atmosphere of methane and air having a 1:1 V/V gas ratio which had been transferred every two weeks. For growth on methanol, the medium was supplemented with 0.4% methanol. For growth on methane, the gaseous phase of the inoculated flasks was replaced with a gas mixture comprised of methane and air having a ratio of 1:1 on a V/V basis. The inoculated flasks were sealed air-tight and were incubated on a rotary shaker of orbital radius 2.5 cm. at 250 rpm and at 30° C. for two days until turbidity in the medium had developed. The cells were harvested by centrifugation at 10,000×g. at 4° C. for 30 minutes. The cell pellet was washed twice with a 0.05 M phosphate buffer at a pH of 7.0 (containing 0.02 M MgCl2). The washed cells were then suspended in a 0.05 M phosphate buffer at pH 7.0.
(§2) A 0.5 ml. sample of each washed cell suspension (2 mg. cells) was put into 10 ml. vials at 4° C. which were sealed with a rubber cap. The gaseous phase of the vials was removed with vacuum and then was replaced with a gas mixture of the substrate reactant (i.e., alkane or secondary alcohol) and oxygen at a 1:1 V/V ratio. (In the case of a liquid substrate, i.e., secondary alcohol, 10 μl of the substrate was put in the 10 ml. vials). The vials were then incubated at 30° C. on a rotary shaker at 300 rpm. Samples of product (1-3 μl) were withdrawn periodically with a microsyringe and the products were analyzed by gas chromatography (ionization flame detector column).

[2] = test system: Methylobacterium organophilum XX; test: as above; assay type: cell-based; details: cells grown on methane; 30° C.
Description: as §1, §2

[3] = test system: Methylococcus capsulatus Texas (ATCC 19069); test: as above; assay type: cell-based; details: cells grown on methane; 30° C.
Description: as §1, §2

[4] = test system: Methylocystis parvus OBBP (NRRL B-11,198); test: as above; assay type: cell-based; details: cells grown on methane; 30° C.
Description: as §1, §2

[5] = test system: Methylomonas albus BG8 (NRRL B-11,200); test: as above; assay type: cell-based; details: cells grown on methane; 30° C.
Description: as §1, §2

[6] = test system: Methylomonas methanica SI (NRRL B-11,199); test: as above; assay type: cell-based; details: cells grown on methane; 30° C.
Description: as §1, §2

[7] = test system: Methylosinus sporium 5 (NRRL B-11,197); test: as above; assay type: cell-based; details: cells grown on methane; 30° C.
Description: as §1, §2

[8] = test system: Methylosinus trichosporium OB3b (NRRL B-11,196); test: as above; assay type: cell-based; details: cells grown on methane; 30° C.
Description: as §1, §2

[9] = test system: Methylobacter capsulatus (Y, NRRL-B-11,201); test: n-alkanes to secondary alcohols by cell suspensions (Table XVI); assay type: cell-based; details: Growth Substrate Methane
Text: (§3) Both cell suspensions (particulate fraction) and cell-free particulate fraction of methane-grown methylotroph microorganisms are capable of catalyzing the conversion of C3 -C6 n-alkanes to the corresponding alcohols including secondary alcohols. The conditions for preparing the cell suspensions or the cell-free particulate fractions from methane-grown methylotroph microorganisms is the same as described above. The cell-free particulate fraction requires the presence of oxygen and NADH as an electron donor. […] Tables XVI and XVII show the conversion of C3 -C6 n-alkanes to the corresponding secondary alcohols using cell suspensions and cell-free particulate fractions, respectively, of methane-grown methylotroph microorganisms.
(§4) ^(a) The product secondary alcohols were identified and estimated by […]

[10] = test system: Methylobacterium sp. (CRL-26, NRRL-B-11,208); test: as above; assay type: cell-based; details: Growth Substrate Methane
Text: as §3, §4

[11] = test system: Methylococcus capsulatus (Texas, ATCC 19,069); test: as above; assay type: cell-based; details: Growth Substrate Methane
Text: as §3, §4

[12] = test system: Methylomonas sp. (CRL-17, NRRL-B-11,209); test: as above; assay type: cell-based; details: Growth Substrate Methane
Text: as §3, §4

[13] = test system: Methylosinus sp. (CRL-15, NRRL-B-11,202); test: as above; assay type: cell-based; details: Growth Substrate Methane
Text: as §3, §4

[14] = test system: Methylosinus trichosporium (OB3b, NRRL-B-11,196); test: as above; assay type: cell-based; details: Growth Substrate Methane
Text: as §3, §4

[15] = molecular target: particulate P(40) fraction (Methylosinus trichosporium, UniProt Q50541+Q9KX50+Q9KX51); test: hydroxylation of n-alkanes to secondary alcohols by particulate P(40) fraction (Table XVII); assay type: biochemical, Methylosinus sp. (CRL-15, NRRL-B-11,202)
Text: as §3
(§5) ^(a) Particulate P(40) fraction was prepared as follows:
(§6) Cellsuspensions at 4° C. were disintegrated through a French
(§7) Pressure cell and centrifuged at 4000 × g. for 15 min. to remove
(§8) unbroken bacteria. The supernatant solution was then centrifuged at 40,00
(§9) × g. for 30 min. at 4° C., yielding the particulate P(40) an
(§10) soluble S(40) fractions. The products were identified by gas
(§11) chromatography and cochromatography with authentic standard.
Target sequence in this assay (Q9KX50 40-431): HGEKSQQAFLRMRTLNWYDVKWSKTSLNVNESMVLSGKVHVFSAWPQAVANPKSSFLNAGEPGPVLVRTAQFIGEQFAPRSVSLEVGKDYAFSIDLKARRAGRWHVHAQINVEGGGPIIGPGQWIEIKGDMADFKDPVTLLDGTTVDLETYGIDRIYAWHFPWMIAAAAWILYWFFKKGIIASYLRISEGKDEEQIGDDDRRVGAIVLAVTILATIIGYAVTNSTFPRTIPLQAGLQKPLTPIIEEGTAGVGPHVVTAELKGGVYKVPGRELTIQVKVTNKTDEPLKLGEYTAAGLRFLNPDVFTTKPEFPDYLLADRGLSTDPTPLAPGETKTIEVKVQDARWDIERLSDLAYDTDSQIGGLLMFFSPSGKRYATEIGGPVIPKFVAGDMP
Target sequence in this assay (Q50541 1-252): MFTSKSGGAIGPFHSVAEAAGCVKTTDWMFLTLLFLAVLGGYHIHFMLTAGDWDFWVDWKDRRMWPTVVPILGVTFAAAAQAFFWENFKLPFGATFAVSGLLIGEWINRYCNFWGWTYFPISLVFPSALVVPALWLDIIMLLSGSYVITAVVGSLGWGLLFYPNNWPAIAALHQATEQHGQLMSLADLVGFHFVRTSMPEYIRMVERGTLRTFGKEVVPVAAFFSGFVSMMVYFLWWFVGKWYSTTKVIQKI
Target sequence in this assay (Q9KX51 1-256): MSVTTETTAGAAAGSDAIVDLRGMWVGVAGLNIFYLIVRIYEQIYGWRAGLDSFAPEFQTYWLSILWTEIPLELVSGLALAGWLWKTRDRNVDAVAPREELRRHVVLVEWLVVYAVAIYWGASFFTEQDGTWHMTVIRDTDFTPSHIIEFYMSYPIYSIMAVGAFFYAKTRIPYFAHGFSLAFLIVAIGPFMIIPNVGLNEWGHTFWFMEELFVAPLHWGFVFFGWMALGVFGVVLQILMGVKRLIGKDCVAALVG

[16] = molecular target: particulate P(40) fraction (Methylococcus capsulatus, UniProt G1UBD1+Q603F1+Q607G3); test: as above; assay type: biochemical, Methylococcus capsulatus (Texas, ATCC 19,069)
particulate P(40) fraction (Methylococcus capsulatus, UniProt G1UBD1+Q603F1+Q607G3), sequence (Q607G3 whole entry): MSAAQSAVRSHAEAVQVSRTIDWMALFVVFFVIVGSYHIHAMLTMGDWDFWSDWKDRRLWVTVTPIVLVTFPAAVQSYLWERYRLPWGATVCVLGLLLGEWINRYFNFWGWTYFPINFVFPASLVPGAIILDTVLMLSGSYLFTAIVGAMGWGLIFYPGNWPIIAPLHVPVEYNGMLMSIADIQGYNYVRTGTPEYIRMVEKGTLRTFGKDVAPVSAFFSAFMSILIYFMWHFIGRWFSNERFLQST
particulate P(40) fraction (Methylococcus capsulatus, UniProt G1UBD1+Q603F1+Q607G3), sequence (G1UBD1 33-414): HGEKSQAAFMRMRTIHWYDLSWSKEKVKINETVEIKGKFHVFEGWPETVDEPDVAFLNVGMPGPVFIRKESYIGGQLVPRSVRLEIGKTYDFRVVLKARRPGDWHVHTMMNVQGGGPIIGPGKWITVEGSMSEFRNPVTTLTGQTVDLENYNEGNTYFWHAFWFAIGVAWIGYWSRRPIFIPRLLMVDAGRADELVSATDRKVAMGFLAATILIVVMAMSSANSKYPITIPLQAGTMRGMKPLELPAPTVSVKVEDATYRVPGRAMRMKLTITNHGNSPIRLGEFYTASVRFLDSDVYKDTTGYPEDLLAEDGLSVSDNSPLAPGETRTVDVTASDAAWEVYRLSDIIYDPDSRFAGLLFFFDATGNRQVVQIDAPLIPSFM
particulate P(40) fraction (Methylococcus capsulatus, UniProt G1UBD1+Q603F1+Q607G3), sequence (Q603F1 1-260): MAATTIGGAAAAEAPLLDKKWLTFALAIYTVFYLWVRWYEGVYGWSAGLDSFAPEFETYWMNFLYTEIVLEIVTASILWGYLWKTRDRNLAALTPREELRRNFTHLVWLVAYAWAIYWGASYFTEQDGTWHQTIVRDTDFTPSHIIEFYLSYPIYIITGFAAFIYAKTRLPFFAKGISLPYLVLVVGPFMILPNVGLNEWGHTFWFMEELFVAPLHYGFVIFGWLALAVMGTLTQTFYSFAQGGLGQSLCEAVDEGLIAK
Text: as §3, §5, §6, §7, §8, §9, §10, §11

[17] = molecular target: particulate P(40) fraction (Methylosinus trichosporium, UniProt Q50541+Q9KX50+Q9KX51); test: as above; assay type: biochemical, Methylosinus trichosporium (OB3b, NRRL-B-11,196)
Text: as §3, §5, §6, §7, §8, §9, §10, §11
Target sequence in this assay (Q50541 1-252): as the sequence (Q50541 1-252) above
Target sequence in this assay (Q9KX50 40-431): as the sequence (Q9KX50 40-431) above
Target sequence in this assay (Q9KX51 1-256): as the sequence (Q9KX51 1-256) above

[18] = test system: particulate P(40) fraction; test: as above; assay type: biochemical, Methylobacterium sp. (CRL-26, NRRL-B-11,222)
Text: as §3, §5, §6, §7, §8, §9, §10, §11

[19] = test system: Methylosinus trichosporium OB3b NRRL B-11,196; test: conversion of n-alkanes to oxidation products by cell suspensions (Table XVIII); assay type: cell-based; details: methane-grown cell suspension; pH 7.0
Description: (§12) ^(a) Cell-suspensions of methanegrown methylotroph microorganisms
(§13) indicated in 0.15 M phosphate buffer, pH 7.0 incubated in the alkanes as
(§14) indicated at 3° C. The oxidation products were determined by g.l.c

[20] = test system: Methylococcus capsulatus CRL M1 NRRL B-11,219; test: as above; assay type: cell-based; details: methane-grown cell suspension; pH 7.0
Description: as §12, §13, §14

Compound	Conversion Rates, n-alkane to corresponding methyl ketone [1]	Conversion Rates, n-alkane to corresponding methyl ketone [2]	Conversion Rates, n-alkane to corresponding methyl ketone [3]	Conversion Rates, n-alkane to corresponding methyl ketone [4]	Conversion Rates, n-alkane to corresponding methyl ketone [5]	Conversion Rates, n-alkane to corresponding methyl ketone [6]	Conversion Rates, n-alkane to corresponding methyl ketone [7]	Conversion Rates, n-alkane to corresponding methyl ketone [8]	Conversion Rate, n-alkane to corresponding secondary alcohol [9]	Conversion Rate, n-alkane to corresponding secondary alcohol [10]	Conversion Rate, n-alkane to corresponding secondary alcohol [11]	Conversion Rate, n-alkane to corresponding secondary alcohol [12]	Conversion Rate, n-alkane to corresponding secondary alcohol [13]	Conversion Rate, n-alkane to corresponding secondary alcohol [14]	Conversion Rate, n-alkane to corresponding secondary alcohol [15]	Conversion Rate, n-alkane to corresponding secondary alcohol [16]	Conversion Rate, n-alkane to corresponding secondary alcohol [17]	Conversion Rate, n-alkane to corresponding secondary alcohol [18]	also measured
CCCC [n-Butane, n-butane]	1.1 μmoles/hr/mg protein	2.0 μmoles/hr/mg protein	0.52 μmoles/hr/mg protein	1.0 μmoles/hr/mg protein	0.60 μmoles/hr/mg protein	0.30 μmoles/hr/mg protein	0.58 μmoles/hr/mg protein	1.2 μmoles/hr/mg protein	0.09 μmoles/hr/^5 mg. protein	0.80 μmoles/hr/^5 mg. protein	1.0 μmoles/hr/^5 mg. protein	1.2 μmoles/hr/^5 mg. protein	1.2 μmoles/hr/^5 mg. protein	1.5 μmoles/hr/^5 mg. protein	0.89 μmoles/hr/2.0mg. of protein	0.92 μmoles/hr/2.0mg. of protein	0.79 μmoles/hr/2.0mg. of protein	0.61 μmoles/hr/2.0mg. of protein	Conversion Rate, product 1-Butanol [19]: 0.3 μmoles/hr./mg./protein; Conversion Rate, product 2-Butanol [19]: 0.4 μmoles/hr./mg./protein; Conversion Rate, product 2-Butanone [19]: 0.1 μmoles/hr./mg./protein; Conversion Rate, product n-butanol [19]: 0.1 μmoles/hr./mg./protein; Conversion Rate, product 1-Butanol [20]: 0.4 μmoles/hr./mg./protein; Conversion Rate, product 2-Butanol [20]: 0.5 μmoles/hr./mg./protein; Conversion Rate, product 2-Butanone [20]: 0.2 μmoles/hr./mg./protein; Conversion Rate, product n-butanol [20]: 0.2 μmoles/hr./mg./protein
CCC [n-Propane, n-propane]	1.6 μmoles/hr/mg protein	2.8 μmoles/hr/mg protein	1.2 μmoles/hr/mg protein	1.8 μmoles/hr/mg protein	2.7 μmoles/hr/mg protein	2.5 μmoles/hr/mg protein	2.1 μmoles/hr/mg protein	1.5 μmoles/hr/mg protein	0.20 μmoles/hr/^5 mg. protein	1.4 μmoles/hr/^5 mg. protein	1.1 μmoles/hr/^5 mg. protein	1.6 μmoles/hr/^5 mg. protein	2.1 μmoles/hr/^5 mg. protein	2.5 μmoles/hr/^5 mg. protein	1.5 μmoles/hr/2.0mg. of protein	1.2 μmoles/hr/2.0mg. of protein	1.32 μmoles/hr/2.0mg. of protein	1.0 μmoles/hr/2.0mg. of protein	Conversion Rate, product 1-Propanol [19]: 0.4 μmoles/hr./mg./protein; Conversion Rate, product 2-Propanol [19]: 0.6 μmoles/hr./mg./protein; Conversion Rate, product Acetone [19]: 0.2 μmoles/hr./mg./protein; Conversion Rate, product Propanol [19]: 0.1 μmoles/hr./mg./protein; Conversion Rate, product 1-Propanol [20]: 0.5 μmoles/hr./mg./protein; Conversion Rate, product 2-Propanol [20]: 0.7 μmoles/hr./mg./protein; Conversion Rate, product Acetone [20]: 0.3 μmoles/hr./mg./protein; Conversion Rate, product Propanol [20]: 0.2 μmoles/hr./mg./protein
